Assay results published in US20240270821A1, “GIP/GLP1/GCG TRI-RECEPTOR AGONISTS AND USES THEREOF” (priority 2023, published 2024).
Starred links: 1 amine or outer side, 2 acyl side, 3 side chain; linkers in the order of their positions; H or OH if unused. Non-standard residues stand in square brackets, D forms with d. Residues, ends and D or L forms follow the SMILES beside them. Groups on a side chain read outwards from the residue. *: point of attachment. C18 diacid = O=C(O)CCCCCCCCCCCCCCCCC(=O)*; αMePhe(2-F) = C[C@](N)(Cc1ccccc1F)C(=O)O; γGlu = O=C(O)[C@H](CCC(=O)[*:2])N[*:1]; αMeY = C[C@](N)(Cc1ccc(O)cc1)C(=O)O; αMeF = C[C@](N)(Cc1ccccc1)C(=O)O; αMeL = CC(C)C[C@](C)(N)C(=O)O; αMeS = C[C@](N)(CO)C(=O)O; Orn = NCCC[C@H](N)C(=O)O; AEEA = NCCOCCOCC(=O)O; Aib = CC(C)(N)C(=O)O

Legend:
Assay type in all cases: cell-based
[1] = molecular target: T1, hGIPR (Homo sapiens, UniProt P48546); experiment: Functional cAMP activity in the presence of 1% HSA; details: read-out: cAMP Rel EC50, hGIPR
T1 sequence (P48546 22-466): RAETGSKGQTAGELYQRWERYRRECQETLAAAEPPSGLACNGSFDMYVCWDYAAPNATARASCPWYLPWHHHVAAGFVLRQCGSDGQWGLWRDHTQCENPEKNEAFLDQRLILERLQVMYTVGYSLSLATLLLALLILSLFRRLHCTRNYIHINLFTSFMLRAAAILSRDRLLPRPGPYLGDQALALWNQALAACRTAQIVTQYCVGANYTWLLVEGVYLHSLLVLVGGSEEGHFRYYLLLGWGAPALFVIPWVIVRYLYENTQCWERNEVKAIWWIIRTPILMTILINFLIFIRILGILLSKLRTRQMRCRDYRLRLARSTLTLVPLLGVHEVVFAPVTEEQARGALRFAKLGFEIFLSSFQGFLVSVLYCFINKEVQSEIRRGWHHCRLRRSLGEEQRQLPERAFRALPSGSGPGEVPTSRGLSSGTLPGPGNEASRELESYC

[2] = molecular target: T2, hGLP-1R (Homo sapiens, UniProt P43220); experiment: Functional cAMP activity in the presence of 1% HSA; details: read-out: cAMP Rel EC50, hGLP-1R
[3] = molecular target: human GcgR (Homo sapiens, UniProt P47871); experiment: Functional cAMP activity in the presence of 1% HSA; details: read-out: cAMP Rel EC50, hGcgR
[4] = molecular target: T1, hGIPR; experiment: Functional cAMP activation in the presence of 0.1% casein (no HSA); details: read-out: Relative cAMP EC50, hGIPR;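 for Relative cAMP EC50, hGIPR: intracellular cAMP rise after 30 min at 37 °C read by HTRF against a standard curve, scaled between buffer alone (0%) and top control ligand concentration (100%), four-parameter fit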;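 for Relative cAMP EC50, hGLP-1R: intracellular cAMP rise after 30 min at 37 °C read by HTRF, normalized between buffer only (0%) and maximal control ligand (100%), four-parameter variable-slope fit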;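 for Relative cAMP EC50, hGcgR: intracellular cAMP rise after 30 min at 37 °C, read by HTRF against a cAMP standard curve, scaled from buffer only (0%) to maximal control ligand response (100%)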
[5] = molecular target: T2, hGLP-1R; experiment: as above; details: read-out: Relative cAMP EC50, hGLP-1R
[6] = molecular target: hGcgR (Homo sapiens, UniProt P47871); experiment: as above; details: read-out: Relative cAMP EC50, hGcgR;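 note: intracellular cAMP rise after 30 min at 37 °C, read by HTRF against a cAMP standard curve, scaled from buffer only (0%) to maximal control ligand response (100%)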
Sequence of hGcgR (P47871 26-477): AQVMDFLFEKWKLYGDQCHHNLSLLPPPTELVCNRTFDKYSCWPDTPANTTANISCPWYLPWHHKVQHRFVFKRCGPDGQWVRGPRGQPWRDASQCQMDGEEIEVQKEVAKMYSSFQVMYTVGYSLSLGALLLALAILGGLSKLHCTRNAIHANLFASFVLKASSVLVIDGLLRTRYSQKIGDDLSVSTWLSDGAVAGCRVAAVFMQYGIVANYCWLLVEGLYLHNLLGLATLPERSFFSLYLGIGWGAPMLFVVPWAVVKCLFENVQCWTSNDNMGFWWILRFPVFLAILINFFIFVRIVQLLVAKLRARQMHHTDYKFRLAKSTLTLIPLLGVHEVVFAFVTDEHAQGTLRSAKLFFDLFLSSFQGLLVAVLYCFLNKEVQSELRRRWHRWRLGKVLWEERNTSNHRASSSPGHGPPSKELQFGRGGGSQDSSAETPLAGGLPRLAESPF

T2 sequence (P43220 24-463): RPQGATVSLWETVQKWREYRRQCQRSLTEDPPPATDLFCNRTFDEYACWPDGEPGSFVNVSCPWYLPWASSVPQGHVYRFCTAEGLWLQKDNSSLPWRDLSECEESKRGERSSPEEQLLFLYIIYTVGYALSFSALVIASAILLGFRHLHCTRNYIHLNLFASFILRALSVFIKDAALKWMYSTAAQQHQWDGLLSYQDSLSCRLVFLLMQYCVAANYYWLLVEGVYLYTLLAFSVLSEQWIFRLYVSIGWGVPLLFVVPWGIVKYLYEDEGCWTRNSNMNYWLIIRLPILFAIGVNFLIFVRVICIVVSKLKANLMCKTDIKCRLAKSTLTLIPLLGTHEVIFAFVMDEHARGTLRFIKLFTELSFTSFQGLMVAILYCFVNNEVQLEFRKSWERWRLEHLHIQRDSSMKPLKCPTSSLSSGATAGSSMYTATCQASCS
Sequence of human GcgR (P47871 26-477): as the sequence (P47871 26-477) above

SMILES | EC50 [1] | EC50 [2] | EC50 [3] | EC50 [4] | EC50 [5] | EC50 [6]
CC[C@H](C)[C@H](NC(=O)[C@H](Cc1ccccc1)NC(=O)[C@H](C)NC(=O)C(C)(C)NC(=O)[C@H](CCC(N)=O)NC(=O)[C@H](C)NC(=O)[C@H](CCCCNC(=O)COCCOCCNC(=O)CC[C@H](NC(=O)CCCCCCCCCCCCCCCCC(=O)O)C(=O)O)NC(=O)[C@H](CCCN)NC(=O)[C@H](CC(=O)O)NC(=O)[C@H](CC(C)C)NC(=O)[C@](C)(CC(C)C)NC(=O)[C@@H](NC(=O)[C@H](CO)NC(=O)[C@H](Cc1ccc(O)cc1)NC(=O)[C@H](CC(=O)O)NC(=O)[C@H](CO)NC(=O)[C@@H](NC(=O)[C@](C)(Cc1ccccc1)NC(=O)[C@@H](NC(=O)CNC(=O)[C@H](CCC(N)=O)NC(=O)C(C)(C)NC(=O)[C@@H](N)Cc1ccc(O)cc1)[C@@H](C)O)[C@@H](C)O)[C@@H](C)CC)C(=O)N[C@@H](CCC(=O)O)C(=O)N[C@@H](Cc1ccc(O)cc1)C(=O)N[C@@H](CC(C)C)C(=O)N[C@@H](CCC(=O)O)C(=O)N[C@@H](CCC(=O)O)C(=O)NCC(=O)NCC(=O)N1CCC[C@H]1C(=O)N[C@@H](CO)C(=O)N[C@@H](CO)C(=O)NCC(=O)N[C@@H](C)C(=O)N1CCC[C@H]1C(=O)N1CCC[C@H]1C(=O)N1CCC[C@H]1C(=O)N[C@@H](CCC(=O)O)C(N)=O [Example 397] (H-Y[Aib]QGT[αMeF]TSDYSI[αMeL]LD[Orn]K([AEEA-γGlu-C18 diacid])AQ[Aib]AFIEYLEEGGPSSGAPPPE-NH2) | 10.1 nM | 34.9 nM | 1110 nM | 0.0247 nM | 0.2 nM | 5.22 nM
CC[C@H](C)[C@H](NC(=O)[C@H](Cc1ccccc1)NC(=O)[C@H](C)NC(=O)C(C)(C)NC(=O)[C@H](CCC(N)=O)NC(=O)[C@H](C)NC(=O)[C@H](CCCCNC(=O)COCCOCCNC(=O)CC[C@H](NC(=O)CCCCCCCCCCCCCCCCC(=O)O)C(=O)O)NC(=O)[C@H](CCCCN)NC(=O)[C@H](CC(=O)O)NC(=O)[C@H](CC(C)C)NC(=O)[C@H](CC(C)C)NC(=O)[C@@H](NC(=O)[C@H](CO)NC(=O)[C@H](Cc1ccc(O)cc1)NC(=O)[C@H](CC(=O)O)NC(=O)[C@H](CO)NC(=O)[C@@H](NC(=O)[C@](C)(Cc1ccccc1F)NC(=O)[C@@H](NC(=O)CNC(=O)[C@H](CCC(N)=O)NC(=O)C(C)(C)NC(=O)[C@@H](N)Cc1ccc(O)cc1)[C@@H](C)O)[C@@H](C)O)[C@@H](C)CC)C(=O)N[C@@H](CCC(=O)O)C(=O)N[C@@H](Cc1ccc(O)cc1)C(=O)N[C@@H](CC(C)C)C(=O)N[C@@H](CCC(=O)O)C(=O)N[C@@H](CCC(=O)O)C(=O)NCC(=O)NCC(=O)N1CCC[C@H]1C(=O)N[C@@H](CO)C(=O)N[C@@H](CO)C(=O)NCC(=O)N[C@@H](C)C(=O)N1CCC[C@H]1C(=O)N1CCC[C@H]1C(=O)N1CCC[C@H]1C(=O)N[C@@H](CO)C(=O)N[C@@H](CCC(=O)O)C(=O)NCC(N)=O [Example 398] | 12.4 nM | 42.2 nM | 375 nM | 0.0318 nM | 0.186 nM | 2.16 nM
CC[C@H](C)[C@H](NC(=O)[C@H](Cc1ccccc1)NC(=O)[C@H](C)NC(=O)C(C)(C)NC(=O)[C@H](CCC(N)=O)NC(=O)[C@H](C)NC(=O)[C@H](CCCCNC(=O)COCCOCCNC(=O)CC[C@H](NC(=O)CCCCCCCCCCCCCCCCC(=O)O)C(=O)O)NC(=O)[C@H](CCCCN)NC(=O)[C@H](CC(=O)O)NC(=O)[C@H](CC(C)C)NC(=O)[C@](C)(CC(C)C)NC(=O)[C@@H](NC(=O)[C@H](CO)NC(=O)[C@H](Cc1ccc(O)cc1)NC(=O)[C@H](CC(=O)O)NC(=O)[C@H](CO)NC(=O)[C@@H](NC(=O)[C@](C)(Cc1ccccc1F)NC(=O)[C@@H](NC(=O)CNC(=O)[C@H](CCC(N)=O)NC(=O)C(C)(C)NC(=O)[C@@H](N)Cc1ccc(O)cc1)[C@@H](C)O)[C@@H](C)O)[C@@H](C)CC)C(=O)N[C@@H](CCC(=O)O)C(=O)N[C@@H](Cc1ccc(O)cc1)C(=O)N[C@@H](CC(C)C)C(=O)N[C@@H](CCC(=O)O)C(=O)N[C@@H](CCC(=O)O)C(=O)NCC(=O)NCC(=O)N1CCC[C@H]1C(=O)N[C@@H](CO)C(=O)N[C@@H](CO)C(=O)NCC(=O)N[C@@H](C)C(=O)N1CCC[C@H]1C(=O)N1CCC[C@H]1C(=O)N1CCC[C@H]1C(=O)N[C@@H](CCC(=O)O)C(N)=O [Example 400] (H-Y[Aib]QGT[αMePhe(2-F)]TSDYSI[αMeL]LDKK([AEEA-γGlu-C18 diacid])AQ[Aib]AFIEYLEEGGPSSGAPPPE-NH2) | 3.86 nM | 29.1 nM | 265 nM | 0.0158 nM | 0.253 nM | 2.53 nM
CC[C@H](C)[C@H](NC(=O)[C@H](Cc1ccccc1)NC(=O)[C@H](CCCN)NC(=O)C(C)(C)NC(=O)[C@H](CCC(N)=O)NC(=O)[C@H](C)NC(=O)[C@H](CCCCNC(=O)COCCOCCNC(=O)COCCOCCNC(=O)CC[C@H](NC(=O)CCCCCCCCCCCCCCCCC(=O)O)C(=O)O)NC(=O)[C@H](CCCN)NC(=O)[C@H](CC(=O)O)NC(=O)[C@H](CC(C)C)NC(=O)[C@](C)(CC(C)C)NC(=O)[C@@H](NC(=O)[C@](C)(CO)NC(=O)[C@H](Cc1ccc(O)cc1)NC(=O)[C@H](CC(=O)O)NC(=O)[C@H](CO)NC(=O)[C@@H](NC(=O)[C@](C)(Cc1ccccc1F)NC(=O)[C@@H](NC(=O)CNC(=O)[C@H](CCC(N)=O)NC(=O)C(C)(C)NC(=O)[C@@H](N)Cc1ccc(O)cc1)[C@@H](C)O)[C@@H](C)O)[C@@H](C)CC)C(=O)N[C@H](CCC(=O)O)C(=O)N[C@@](C)(Cc1ccc(O)cc1)C(=O)N[C@@H](CC(C)C)C(=O)N[C@@H](CCC(=O)O)C(=O)N[C@@H](CCC(=O)O)C(=O)NCC(=O)NCC(=O)N1CCC[C@H]1C(=O)N[C@@H](CO)C(=O)N[C@@H](CO)C(=O)NCC(=O)N[C@@H](CCC(=O)O)C(=O)N1CCC[C@H]1C(=O)N1CCC[C@H]1C(=O)N1CCC[C@H]1C(=O)N[C@@H](CCC(=O)O)C(N)=O [Example 402] (H-Y[Aib]QGT[αMePhe(2-F)]TSDY[αMeS]I[αMeL]LD[Orn]K([AEEA-AEEA-γGlu-C18 diacid])AQ[Aib][Orn]FI[dE][αMeY]LEEGGPSSGEPPPE-NH2; N-terminus assumed) | 44.9 nM | 86.6 nM | 1030 nM | 0.123 nM | 0.725 nM | 5.66 nM
CC[C@H](C)[C@H](NC(=O)[C@H](Cc1ccccc1)NC(=O)[C@H](C)NC(=O)C(C)(C)NC(=O)[C@H](CCC(N)=O)NC(=O)[C@H](C)NC(=O)[C@H](CCCCNC(=O)CC[C@H](NC(=O)CC[C@H](NC(=O)CCCCCCCCCCCCCCCCC(=O)O)C(=O)O)C(=O)O)NC(=O)[C@H](CCCCN)NC(=O)[C@H](CC(=O)O)NC(=O)[C@H](CC(C)C)NC(=O)[C@H](CC(C)C)NC(=O)[C@@H](NC(=O)[C@H](CO)NC(=O)[C@H](Cc1ccc(O)cc1)NC(=O)[C@H](CC(=O)O)NC(=O)[C@H](CO)NC(=O)[C@@H](NC(=O)[C@](C)(Cc1ccccc1F)NC(=O)[C@@H](NC(=O)CNC(=O)[C@H](CCC(N)=O)NC(=O)C(C)(C)NC(=O)[C@@H](N)Cc1ccc(O)cc1)[C@@H](C)O)[C@@H](C)O)[C@@H](C)CC)C(=O)N[C@@H](CCC(=O)O)C(=O)N[C@@H](Cc1ccc(O)cc1)C(=O)N[C@@H](CC(C)C)C(=O)N[C@@H](CCC(=O)O)C(=O)N[C@@H](CCC(=O)O)C(=O)NCC(=O)NCC(=O)N1CCC[C@H]1C(=O)N[C@@H](CO)C(=O)N[C@@H](CO)C(=O)NCC(=O)N[C@@H](C)C(=O)N1CCC[C@H]1C(=O)N1CCC[C@H]1C(=O)N1CCC[C@H]1C(=O)N[C@@H](CO)C(N)=O [Example 406] (H-Y[Aib]QGT[αMePhe(2-F)]TSDYSILLDKK([γGlu-γGlu-C18 diacid])AQ[Aib]AFIEYLEEGGPSSGAPPPS-NH2) | 10.5 nM | 27.8 nM | 254 nM | 0.0233 nM | 0.208 nM | 1.23 nM
CC[C@H](C)[C@H](NC(=O)[C@H](Cc1ccccc1)NC(=O)[C@H](C)NC(=O)C(C)(C)NC(=O)[C@H](CCC(N)=O)NC(=O)[C@H](C)NC(=O)[C@H](CCCCNC(=O)COCCOCCNC(=O)CC[C@H](NC(=O)CCCCCCCCCCCCCCCCC(=O)O)C(=O)O)NC(=O)[C@H](CCCCN)NC(=O)[C@H](CC(=O)O)NC(=O)[C@H](CC(C)C)NC(=O)[C@H](CC(C)C)NC(=O)[C@@H](NC(=O)[C@H](CO)NC(=O)[C@H](Cc1ccc(O)cc1)NC(=O)[C@H](CC(=O)O)NC(=O)[C@H](CO)NC(=O)[C@@H](NC(=O)[C@](C)(Cc1ccccc1F)NC(=O)[C@@H](NC(=O)CNC(=O)[C@H](CCC(N)=O)NC(=O)C(C)(C)NC(=O)[C@@H](N)Cc1ccc(O)cc1)[C@@H](C)O)[C@@H](C)O)[C@@H](C)CC)C(=O)N[C@@H](CCC(=O)O)C(=O)N[C@@H](Cc1ccc(O)cc1)C(=O)N[C@@H](CC(C)C)C(=O)N[C@@H](CCC(=O)O)C(=O)N[C@@H](CCC(=O)O)C(=O)NCC(=O)NCC(=O)N1CCC[C@H]1C(=O)N[C@@H](CO)C(=O)N[C@@H](CO)C(=O)NCC(=O)N[C@@H](CCC(=O)O)C(=O)N1CCC[C@H]1C(=O)N1CCC[C@H]1C(=O)N1CCC[C@H]1C(=O)N[C@@H](CO)C(N)=O [Example 407] | 11.7 nM | 37.2 nM | 485 nM | 0.0362 nM | 0.259 nM | 1.49 nM
